Experimental data from ChEMBL document CHEMBL2010712, “Design and synthesis of orally available MEK inhibitors with potent in vivo antitumor efficacy” (Bioorg Med Chem Lett, 2012).
Blank lines part the entries; values can stand above or below the molecule they belong to. Calls of active or inactive are those of the source. The rule behind the calls is not given here.

Tests used:
[1] = Half life in rat liver microsomes; format: ADME, Microsome
[2] = Half life in human liver microsomes; format: ADME, Microsome
COLO 205 = assay: Cytotoxicity against human COLO205 cells after 72 hrs by MTS assay; conditions: COLO 205, 72 h
[3] = molecular target: Dual specificity mitogen-activated protein kinase kinase 1 (Homo sapiens, UniProt Q02750); assay: Inhibition of MEK1-mediated ERK1 phosphorylation using IPTTPITTYFFFK-5FAM-COOH as substrate by fluorescent polarization assay
Dual specificity mitogen-activated protein kinase kinase 1, sequence (Q02750 whole entry): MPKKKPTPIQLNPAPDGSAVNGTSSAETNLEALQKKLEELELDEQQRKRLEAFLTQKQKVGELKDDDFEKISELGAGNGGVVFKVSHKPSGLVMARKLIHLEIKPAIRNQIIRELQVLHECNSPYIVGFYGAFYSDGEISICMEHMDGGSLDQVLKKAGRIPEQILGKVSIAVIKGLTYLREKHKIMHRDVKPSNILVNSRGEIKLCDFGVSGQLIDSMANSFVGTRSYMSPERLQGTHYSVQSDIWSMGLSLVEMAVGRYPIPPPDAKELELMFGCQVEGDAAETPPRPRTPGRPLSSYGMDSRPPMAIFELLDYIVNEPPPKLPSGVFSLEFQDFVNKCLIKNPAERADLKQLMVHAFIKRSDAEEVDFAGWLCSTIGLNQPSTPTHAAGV

A-375 = assay: Cytotoxicity against human A375 cells after 72 hrs by MTS assay; conditions: A-375, 72 h
[4] = molecular target: Epidermal growth factor receptor (Homo sapiens) (UniProt P00533); assay: Inhibition of EGFR at 10 uM
[5] = molecular target: Platelet-derived growth factor receptor beta (Homo sapiens) (UniProt P09619); assay: Inhibition of PDGFRbeta at 10 uM
Platelet-derived growth factor receptor beta (Homo sapiens), sequence (P09619 whole entry): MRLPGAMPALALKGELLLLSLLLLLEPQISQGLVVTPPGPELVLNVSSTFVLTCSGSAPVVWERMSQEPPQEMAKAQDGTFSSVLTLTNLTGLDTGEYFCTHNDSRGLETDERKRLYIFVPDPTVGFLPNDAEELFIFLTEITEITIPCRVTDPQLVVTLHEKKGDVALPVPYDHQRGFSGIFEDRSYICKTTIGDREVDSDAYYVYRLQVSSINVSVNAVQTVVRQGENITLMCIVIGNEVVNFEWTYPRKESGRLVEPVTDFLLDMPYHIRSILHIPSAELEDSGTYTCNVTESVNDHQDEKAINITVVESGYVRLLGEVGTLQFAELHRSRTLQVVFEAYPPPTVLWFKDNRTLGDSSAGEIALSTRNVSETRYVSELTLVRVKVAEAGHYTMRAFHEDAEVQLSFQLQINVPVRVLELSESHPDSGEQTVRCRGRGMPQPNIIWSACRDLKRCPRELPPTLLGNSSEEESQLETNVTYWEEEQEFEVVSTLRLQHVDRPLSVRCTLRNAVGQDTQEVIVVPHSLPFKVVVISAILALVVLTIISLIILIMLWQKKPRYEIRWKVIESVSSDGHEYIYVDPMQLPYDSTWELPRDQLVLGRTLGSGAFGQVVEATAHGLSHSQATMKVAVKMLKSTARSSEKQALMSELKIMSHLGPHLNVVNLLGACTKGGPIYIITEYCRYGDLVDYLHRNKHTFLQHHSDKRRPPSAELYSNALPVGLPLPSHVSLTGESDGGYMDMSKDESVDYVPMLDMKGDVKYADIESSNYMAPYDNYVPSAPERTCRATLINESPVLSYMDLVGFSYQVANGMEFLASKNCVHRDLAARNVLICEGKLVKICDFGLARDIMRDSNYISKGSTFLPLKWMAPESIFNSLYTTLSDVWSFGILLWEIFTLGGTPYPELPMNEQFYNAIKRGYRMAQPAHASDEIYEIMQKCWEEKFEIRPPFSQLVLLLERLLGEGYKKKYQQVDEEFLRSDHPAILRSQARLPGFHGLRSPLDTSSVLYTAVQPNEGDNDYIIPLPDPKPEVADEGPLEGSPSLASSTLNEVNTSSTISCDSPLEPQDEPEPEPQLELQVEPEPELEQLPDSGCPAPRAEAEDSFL

[6] = molecular target: Insulin receptor (Homo sapiens) (UniProt P06213); assay: Inhibition of IR at 10 uM
Insulin receptor (Homo sapiens), sequence (P06213 28-758 limits assumed): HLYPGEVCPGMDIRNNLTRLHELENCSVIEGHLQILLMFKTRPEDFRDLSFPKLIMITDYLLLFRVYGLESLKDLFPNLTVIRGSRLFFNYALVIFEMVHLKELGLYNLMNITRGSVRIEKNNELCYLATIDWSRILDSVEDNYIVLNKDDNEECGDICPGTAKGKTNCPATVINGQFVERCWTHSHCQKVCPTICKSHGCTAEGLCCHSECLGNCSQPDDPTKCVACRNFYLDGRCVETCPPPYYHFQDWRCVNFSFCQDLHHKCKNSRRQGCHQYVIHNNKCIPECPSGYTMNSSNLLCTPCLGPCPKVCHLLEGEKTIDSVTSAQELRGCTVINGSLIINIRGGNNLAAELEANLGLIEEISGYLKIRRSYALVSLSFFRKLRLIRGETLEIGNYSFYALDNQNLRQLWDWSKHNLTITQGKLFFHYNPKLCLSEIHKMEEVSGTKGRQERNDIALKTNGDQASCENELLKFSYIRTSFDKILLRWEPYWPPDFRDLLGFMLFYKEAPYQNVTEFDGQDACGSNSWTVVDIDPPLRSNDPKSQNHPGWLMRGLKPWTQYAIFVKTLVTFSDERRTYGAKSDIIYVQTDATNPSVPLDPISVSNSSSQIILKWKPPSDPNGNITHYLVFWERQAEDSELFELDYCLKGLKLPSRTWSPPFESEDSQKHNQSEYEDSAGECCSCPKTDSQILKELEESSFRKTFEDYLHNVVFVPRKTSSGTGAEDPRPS
Insulin receptor (Homo sapiens), sequence (P06213 763-1382 limits assumed): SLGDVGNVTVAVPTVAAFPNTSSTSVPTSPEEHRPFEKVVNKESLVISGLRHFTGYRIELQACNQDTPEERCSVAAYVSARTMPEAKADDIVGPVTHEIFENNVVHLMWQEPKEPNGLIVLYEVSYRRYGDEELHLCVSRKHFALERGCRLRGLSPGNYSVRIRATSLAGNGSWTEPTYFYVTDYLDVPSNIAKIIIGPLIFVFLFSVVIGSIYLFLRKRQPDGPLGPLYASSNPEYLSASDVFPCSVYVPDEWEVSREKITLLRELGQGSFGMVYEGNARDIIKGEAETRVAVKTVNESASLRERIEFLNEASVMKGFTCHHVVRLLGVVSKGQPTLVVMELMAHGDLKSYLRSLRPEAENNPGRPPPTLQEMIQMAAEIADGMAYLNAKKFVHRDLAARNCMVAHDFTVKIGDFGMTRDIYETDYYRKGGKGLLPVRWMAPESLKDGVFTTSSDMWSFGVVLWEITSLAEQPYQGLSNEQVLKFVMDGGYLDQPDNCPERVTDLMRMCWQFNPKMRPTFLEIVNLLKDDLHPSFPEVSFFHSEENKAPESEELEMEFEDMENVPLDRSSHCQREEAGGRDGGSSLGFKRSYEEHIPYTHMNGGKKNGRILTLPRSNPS

[7] = molecular target: Tyrosine-protein kinase SYK (Homo sapiens) (UniProt P43405); assay: Inhibition of Syk at 10 uM
[8] = molecular target: Angiopoietin-1 receptor (Homo sapiens) (UniProt Q02763); assay: Inhibition of Tie2 at 10 uM
[9] = molecular target: RAC-gamma serine/threonine-protein kinase (Homo sapiens) (UniProt Q9Y243); assay: Inhibition of AKT3 at 10 uM
RAC-gamma serine/threonine-protein kinase (Homo sapiens), sequence (Q9Y243 whole entry): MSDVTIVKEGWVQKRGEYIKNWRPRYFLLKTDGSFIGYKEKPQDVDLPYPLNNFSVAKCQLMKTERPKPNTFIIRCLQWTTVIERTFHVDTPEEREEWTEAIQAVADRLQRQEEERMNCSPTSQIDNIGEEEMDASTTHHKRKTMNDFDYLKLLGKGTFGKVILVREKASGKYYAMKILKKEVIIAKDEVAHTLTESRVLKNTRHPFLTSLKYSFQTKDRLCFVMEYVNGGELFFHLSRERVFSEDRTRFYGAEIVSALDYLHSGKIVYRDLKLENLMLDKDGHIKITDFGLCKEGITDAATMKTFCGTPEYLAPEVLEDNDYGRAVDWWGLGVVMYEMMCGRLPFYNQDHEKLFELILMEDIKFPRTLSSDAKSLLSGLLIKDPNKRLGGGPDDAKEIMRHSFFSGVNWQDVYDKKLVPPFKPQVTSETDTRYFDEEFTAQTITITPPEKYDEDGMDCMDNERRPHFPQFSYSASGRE

[10] = Clearance in rat at 1 mg/kg, iv and 5 mg/kg, po; format: ADME, organism-based; conditions: in vivo
[11] = molecular target: Serine/threonine-protein kinase PLK3 (Homo sapiens) (UniProt Q9H4B4); assay: Inhibition of PLK3 at 10 uM
[12] = molecular target: RAF proto-oncogene serine/threonine-protein kinase (Homo sapiens) (UniProt P04049); assay: Inhibition of c-RAF at 10 uM
RAF proto-oncogene serine/threonine-protein kinase (Homo sapiens), sequence (P04049 whole entry): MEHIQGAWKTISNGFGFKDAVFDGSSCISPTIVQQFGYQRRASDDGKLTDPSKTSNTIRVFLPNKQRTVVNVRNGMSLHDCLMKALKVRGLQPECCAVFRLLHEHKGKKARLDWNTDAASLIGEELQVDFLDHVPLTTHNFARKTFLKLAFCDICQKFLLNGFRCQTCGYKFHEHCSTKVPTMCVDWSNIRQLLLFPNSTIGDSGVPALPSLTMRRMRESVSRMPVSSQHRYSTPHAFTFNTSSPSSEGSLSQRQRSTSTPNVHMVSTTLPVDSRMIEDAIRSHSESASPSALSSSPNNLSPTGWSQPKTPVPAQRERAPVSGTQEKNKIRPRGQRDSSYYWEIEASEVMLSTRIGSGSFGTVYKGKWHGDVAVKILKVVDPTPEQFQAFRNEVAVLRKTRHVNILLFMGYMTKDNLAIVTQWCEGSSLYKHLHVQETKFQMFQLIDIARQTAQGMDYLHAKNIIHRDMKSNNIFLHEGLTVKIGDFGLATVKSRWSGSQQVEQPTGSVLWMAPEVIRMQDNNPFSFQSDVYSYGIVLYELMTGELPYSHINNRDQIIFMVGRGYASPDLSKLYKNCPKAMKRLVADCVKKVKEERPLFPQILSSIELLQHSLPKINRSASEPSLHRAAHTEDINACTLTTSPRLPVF

Rattus norvegicus = assay: Dose normalized AUC in rat at 1 mg/kg, iv and 5 mg/kg, po; format: ADME, organism-based; conditions: in vivo
[13] = molecular target: Protein kinase C alpha type (Homo sapiens) (UniProt P17252); assay: Inhibition of PKCalpha at 10 uM
[14] = Inhibition of cytochrome P450 at 10 uM; format: ADME
[15] = molecular target: T1, Tyrosine-protein kinase JAK3 (Homo sapiens) (UniProt P52333); assay: Inhibition of JAK3 at 10 uM
T1 sequence (whole entry): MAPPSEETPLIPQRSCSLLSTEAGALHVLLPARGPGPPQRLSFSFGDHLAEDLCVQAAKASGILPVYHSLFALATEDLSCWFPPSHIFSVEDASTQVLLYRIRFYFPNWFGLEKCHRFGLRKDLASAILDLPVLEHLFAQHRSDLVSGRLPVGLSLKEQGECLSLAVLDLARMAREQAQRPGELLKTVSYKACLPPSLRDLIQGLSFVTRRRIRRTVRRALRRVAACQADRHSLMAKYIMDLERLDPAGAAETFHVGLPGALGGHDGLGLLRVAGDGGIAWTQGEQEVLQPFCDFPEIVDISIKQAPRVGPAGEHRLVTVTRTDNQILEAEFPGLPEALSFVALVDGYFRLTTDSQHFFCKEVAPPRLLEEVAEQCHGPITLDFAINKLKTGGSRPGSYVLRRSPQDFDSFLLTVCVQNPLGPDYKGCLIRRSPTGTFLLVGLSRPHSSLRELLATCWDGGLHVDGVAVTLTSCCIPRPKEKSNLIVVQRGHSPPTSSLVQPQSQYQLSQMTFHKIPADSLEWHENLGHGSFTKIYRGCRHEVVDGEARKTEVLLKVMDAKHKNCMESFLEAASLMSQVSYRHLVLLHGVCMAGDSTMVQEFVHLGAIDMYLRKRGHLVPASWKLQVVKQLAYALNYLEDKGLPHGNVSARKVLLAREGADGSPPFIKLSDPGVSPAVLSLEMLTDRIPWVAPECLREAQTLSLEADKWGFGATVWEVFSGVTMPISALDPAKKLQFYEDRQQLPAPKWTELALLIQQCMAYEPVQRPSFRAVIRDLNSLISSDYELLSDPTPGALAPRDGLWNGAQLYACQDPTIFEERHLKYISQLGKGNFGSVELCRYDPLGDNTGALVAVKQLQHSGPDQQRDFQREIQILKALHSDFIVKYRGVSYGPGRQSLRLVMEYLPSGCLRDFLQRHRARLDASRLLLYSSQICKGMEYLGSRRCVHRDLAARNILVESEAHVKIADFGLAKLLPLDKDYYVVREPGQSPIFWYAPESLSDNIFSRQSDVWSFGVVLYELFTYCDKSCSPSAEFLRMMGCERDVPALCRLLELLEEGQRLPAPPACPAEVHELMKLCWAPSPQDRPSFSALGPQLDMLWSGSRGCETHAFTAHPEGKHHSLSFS

[16] = molecular target: Hepatocyte growth factor receptor (Homo sapiens) (UniProt P08581); assay: Inhibition of cMET at 10 uM
[17] = molecular target: 3-phosphoinositide-dependent protein kinase 1 (Homo sapiens) (UniProt O15530); assay: Inhibition of PDK1 at 10 uM
[18] = Volume of distribution at steady state in rat at 1 mg/kg, iv and 5 mg/kg, po; format: ADME, organism-based; conditions: in vivo, read-out: Vdss
[19] = molecular target: Tyrosine-protein kinase ABL1 (Homo sapiens) (UniProt P00519); assay: Inhibition of ABL1 at 10 uM
[20] = molecular target: Cyclin-dependent kinase 2/cyclin A (Homo sapiens) (UniProt P24941+P20248+P78396); assay: Inhibition of CDK2/cyclin A at 10 uM; format: protein-complex assay
[21] = molecular target: Proto-oncogene tyrosine-protein kinase Src (Homo sapiens) (UniProt P12931); assay: Inhibition of cSRC at 10 uM
Proto-oncogene tyrosine-protein kinase Src (Homo sapiens), sequence (P12931 2-536 limits assumed): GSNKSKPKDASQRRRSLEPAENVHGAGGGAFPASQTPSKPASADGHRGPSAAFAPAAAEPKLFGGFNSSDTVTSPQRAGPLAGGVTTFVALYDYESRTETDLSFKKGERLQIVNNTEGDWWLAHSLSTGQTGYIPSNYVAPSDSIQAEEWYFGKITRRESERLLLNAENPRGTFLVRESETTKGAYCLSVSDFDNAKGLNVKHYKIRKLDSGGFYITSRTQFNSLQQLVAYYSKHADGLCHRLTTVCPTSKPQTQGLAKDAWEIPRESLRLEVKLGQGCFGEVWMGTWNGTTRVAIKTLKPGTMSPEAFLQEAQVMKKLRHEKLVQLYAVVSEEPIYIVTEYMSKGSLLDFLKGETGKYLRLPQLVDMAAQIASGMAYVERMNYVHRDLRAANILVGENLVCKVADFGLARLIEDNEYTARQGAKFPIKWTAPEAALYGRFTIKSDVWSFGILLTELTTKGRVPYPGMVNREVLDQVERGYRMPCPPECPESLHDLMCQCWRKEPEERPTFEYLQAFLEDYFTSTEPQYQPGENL

[22] = Oral bioavailability in rat at 5 mg/kg; format: ADME, organism-based; conditions: in vivo
[23] = molecular target: Glycogen synthase kinase-3 beta (Homo sapiens) (UniProt P49841); assay: Inhibition of GSK3beta at 10 uM
[24] = molecular target: Mitogen-activated protein kinase 14 (Homo sapiens) (UniProt Q16539); assay: Inhibition of p38alpha at 10 uM
Mitogen-activated protein kinase 14 (Homo sapiens), sequence (Q16539 whole entry): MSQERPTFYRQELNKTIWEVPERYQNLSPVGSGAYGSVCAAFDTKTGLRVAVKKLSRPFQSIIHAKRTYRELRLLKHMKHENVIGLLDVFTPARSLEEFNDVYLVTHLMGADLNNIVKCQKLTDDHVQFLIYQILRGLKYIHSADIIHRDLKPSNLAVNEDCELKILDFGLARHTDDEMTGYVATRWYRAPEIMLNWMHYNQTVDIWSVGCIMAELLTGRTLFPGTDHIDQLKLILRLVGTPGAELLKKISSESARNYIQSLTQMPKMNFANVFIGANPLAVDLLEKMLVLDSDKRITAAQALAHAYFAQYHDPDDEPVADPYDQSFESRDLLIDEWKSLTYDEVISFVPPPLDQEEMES

[25] = molecular target: Calcium/calmodulin-dependent protein kinase type 1D (Homo sapiens) (UniProt Q8IU85); assay: Inhibition of CAMK1delta at 10 uM

SMILES: C#Cc1ccc(Nc2c(C(=O)NOCCO)c3n(c(=O)c2F)CCC3)c(F)c1
half-life [1]: > 200 min
half-life [2]: 128 min
EC50 (COLO 205): 12 nM
IC50 [3]: 69 nM
EC50 (A-375): 33 nM

SMILES: O=C(NOC[C@@H](O)CO)c1c(Nc2ccc(I)cc2F)c(F)c(=O)n2c1CCC2
half-life [1]: > 200 min
inhibition [4]: inactive
inhibition [5]: inactive
inhibition [6]: inactive
inhibition [7]: inactive
inhibition [8]: inactive
inhibition [9]: inactive
half-life [2]: > 200 min
inhibition [11]: inactive
inhibition [12]: inactive
inhibition [13]: inactive
EC50 (COLO 205): 44 nM
inhibition (INH) [14]: Not Active
inhibition [15]: inactive
inhibition [16]: inactive
inhibition [17]: inactive
inhibition [19]: inactive
inhibition [20]: inactive
inhibition [21]: inactive
IC50 [3]: 94 nM
inhibition [23]: inactive
inhibition [24]: inactive
inhibition [25]: inactive
EC50 (A-375): 139 nM

SMILES: Cn1c(Nc2ccc(Br)cc2F)c(C(=O)NOC[C@@H](O)CO)c2c1C(=O)CCC2
half-life [1]: 70 min
half-life [2]: 76 min
EC50 (COLO 205): 53 nM
IC50 [3]: 76 nM
EC50 (A-375): 76 nM

SMILES: O=C(NOCCO)c1c(Nc2ccc(I)cc2F)c(F)c(=O)n2c1CCCC2
half-life [1]: 41 min
half-life [2]: 111 min
EC50 (COLO 205): 12 nM
IC50 [3]: 57 nM
EC50 (A-375): 30 nM

SMILES: O=C(NOCCO)c1c(Nc2ccc(I)cc2F)c(Cl)c(=O)n2c1CCC2
half-life [1]: 54 min
half-life [2]: 47 min
EC50 (COLO 205): 3 nM
IC50 [3]: 109 nM
EC50 (A-375): 5 nM

SMILES: Cn1c(Nc2ccc(I)cc2F)c(C(=O)NOCCO)c2c1C(=O)CC2
half-life [1]: 14 min
half-life [2]: 10 min
EC50 (COLO 205): 2 nM
EC50 (A-375): 4 nM

SMILES: O=C(NOCCO)c1c(Nc2ccc(I)cc2F)cc(=O)n2c1CCC2
half-life [1]: 62 min
half-life [2]: 134 min
EC50 (COLO 205): 5 nM
EC50 (A-375): 13 nM

SMILES: CC(=O)c1cc(C(=O)NOCCO)c(Nc2ccc(I)cc2F)n1C
AUC/dose (Rattus norvegicus): 144 ng·h/mL/mg/kg
EC50 (COLO 205): 12 nM
EC50 (A-375): 14 nM

The next lines start with results.

half-life [1]: 26 min
inhibition [4]: inactive
inhibition [5]: inactive
inhibition [6]: inactive
inhibition [7]: inactive
inhibition [8]: inactive
inhibition [9]: inactive
clearance [10]: 23.7 mL/min/kg
half-life [2]: 36 min
inhibition [11]: inactive
inhibition [12]: inactive
AUC/dose (Rattus norvegicus): 88 ng·h/mL/mg/kg
inhibition [13]: inactive
inhibition (INH) [14]: Not Active
inhibition [15]: inactive
inhibition [16]: inactive
inhibition [17]: inactive
Vd [18]: 1.16 L/kg
inhibition [19]: inactive
inhibition [20]: inactive
inhibition [21]: inactive
IC50 [3]: 20 nM
bioavailability [22]: 12%
inhibition [23]: inactive
inhibition [24]: inactive
inhibition [25]: inactive
SMILES: Cn1c(Nc2ccc(I)cc2F)c(C(=O)NOC[C@H](O)CO)c2c1C(=O)CCC2
EC50 (COLO 205): 2.5 nM
EC50 (A-375): 3 nM

half-life [1]: 54 min
half-life [2]: 64 min
IC50 [3]: 11 nM
SMILES: Cn1c(Nc2ccc(I)cc2F)c(C(=O)NOC[C@@H](O)CO)c2c1C(=O)CC2
EC50 (COLO 205): 5 nM
EC50 (A-375): 7 nM

half-life [1]: > 200 min
half-life [2]: > 200 min
IC50 [3]: 39 nM
SMILES: O=C(NOC[C@H](O)CO)c1c(Nc2ccc(I)cc2F)c(F)c(=O)n2c1CCC2
EC50 (COLO 205): 27 nM
EC50 (A-375): 69 nM

half-life [1]: 54 min
half-life [2]: 86 min
IC50 [3]: 54 nM
SMILES: Cn1c(Nc2ccc(I)cc2F)c(C(=O)NOC[C@H](O)CO)c2c1C(=O)CC2
EC50 (COLO 205): 9 nM
EC50 (A-375): 13 nM

half-life [1]: 5.5 min
half-life [2]: 3.7 min
IC50 [3]: 14 nM
SMILES: Cn1c(Nc2ccc(I)cc2F)c(C(=O)NOCCO)c2c1C(=O)CCC2
EC50 (COLO 205): 1 nM
EC50 (A-375): 1 nM

half-life [1]: > 200 min
half-life [2]: > 200 min
IC50 [3]: 41 nM
SMILES: C#Cc1ccc(Nc2c(C(=O)NOC[C@H](O)CO)c3c(n2C)C(=O)CCC3)c(F)c1
EC50 (COLO 205): 62 nM
EC50 (A-375): 72 nM

half-life [1]: 20 min
half-life [2]: 25 min
IC50 [3]: 18 nM
SMILES: Cn1c(Nc2ccc(Br)cc2F)c(C(=O)NOCCO)c2c1C(=O)CCC2
EC50 (COLO 205): 34 nM
EC50 (A-375): 31 nM

half-life [1]: 36 min
half-life [2]: 22 min
IC50 [3]: 17 nM
SMILES: Cn1c(Nc2ccc(I)cc2F)c(C(=O)NOC[C@@H](O)CO)c2c1C(=O)CCC2
EC50 (COLO 205): 2 nM
EC50 (A-375): 2.5 nM

half-life [1]: 85 min
half-life [2]: 94 min
IC50 [3]: 52 nM
SMILES: Cn1c(Nc2ccc(Br)cc2F)c(C(=O)NOC[C@H](O)CO)c2c1C(=O)CCC2
EC50 (COLO 205): 58 nM
EC50 (A-375): 72 nM
